Experimental data from patent publication US11324832B2, “Tripartite modulators of endosomal G protein-coupled receptors” (Endosome Therapeutics, Inc., priority 2015, dated 2022).
Where a SMILES comes first, the peptide text is derived from it. Where no end group is shown, it is not given here. [ ]: non-standard residue; d: D form.

Tests used:
[1] = tested on: NK1R-positive neurons in lamina I of the dorsal horn; assay: Cell-attached patch clamp recordings in rat spinal cord slices; type: cell-based; conditions: SP 1 μM, 2 min
Description: To evaluate whether NK1R endosomal signaling mediates this sustained activation, cell-attached patch clamp recordings were made from NKiR-positive neurons in lamina I of the dorsal horn in slices of rat spinal cord. […] These findings support a role for NK1R endocytosis in persistent neuronal excitation.
Parasagittal slices (340-400 μm) were prepared using a vibratome from the lumbar region of the rat spinal cord in ice-cold sucrose-based artificial CSF (sACSF) (mM: 100 sucrose, 63 NaCl, 2.5 KCl, 1.2 NaH2PO4, 1.2 MgCl2, 25 glucose, 25 NaHCO3; 95% O2/5% CO2). Slices were transferred to N-Methyl-D-Glucamine (NMDG)-based recovery ACSF (rACSF) (mM: 93 NMDG, 93 HCl, 2.5 KCl, 1.2 NaH2PO4, 30 NaHCO3, 20 HEPES, 25 glucose, 5 Na ascorbate, 2 thiourea, 3 Na pyruvate, 10 MgSO4, 0.5 CaCl2; 95% O2/5% CO2, 15 min, 34° C.). Slices were transferred to normal ACSF (mM: 125 NaCl, 2.5 KCl, 1.25 NaH2PO4, 1.2 MgCl2, 2.5 CaCl2, 25 glucose, 11 NaHCO3; 95% O2/5% CO2) containing 10 μM MK-801 (45 min, 34° C.), then maintained at RT.
Slices of rat spinal cord were transferred to a recording chamber and superfused with normal ACSF (2 ml·min^−1, 36° C.). […] PS2 was not soluble in the low concentrations of DMSO required for electrophysiology. Large, NKiR-positive, presumed nociceptive lamina I neurons were visually identified as described (Imlach, W. L., et al., Molecular Pharmacology, 2015, 88, 460-428). Spontaneous currents were recorded in cell-attached configuration (Multiclamp 700B, Molecular Devices, Sunnyvale, Calif.), sampled at 10 kHz, high pass filtered at 1 Hz, and capacitatively coupled action potential events were analyzed using Axograph X, V 1.4.4 (Axograph). Patch electrodes (resistance 2.5-3.5 MQ) contained KMES-based internal solution (mM: 105 KMES, 20 NaCl, 5 HEPES, 10 BAPTA, 1.5 MgCl2, 4 MgATP, 0.4 NaGTP, 0.1% biocytin; 285-295 mosmol·l^−1) to facilitate subsequent recordings of action potential properties in whole-cell configuration. Recordings were made in the presence of CNQX (6-cyano-7-nitroquinoxaline-2,3-dione) (10 μM; AMPA/kainate receptor antagonist), picrotoxin (100 μM; GABAA receptor antagonist), strychnine (0.5 μM; glycine and acetylcholine receptor antagonist), and AP5 ((2R)-amino-5-phosphonovaleric acid; (2R)-amino-5-phosphonopentanoate) (100 μM; NMDA receptor antagonist) to minimize presynaptic influences on action potential properties. […] Recordings were sampled at 10 kHz and filtered with a high pass filter at 1 Hz and firing rate was measured in two-minute interval bins. At the end of each cell-attached recording, whole-cell recordings were made in current-clamp mode to confirm retention of normal action potential firing. Data were only included in the analysis if cells had action potential amplitudes that were ≥50 mV above threshold to ensure viable neurons were included. Cells were filled with biocytin and sections were processed to confirm NK1R expression by immunofluorescence. […] The firing time was determined as the duration of the response to last action potential. To assess synaptic transmission, whole-cell configuration recordings were made under control conditions or after exposure to Dy4 or Dy4 inact; a bipolar stimulating electrode was placed at the dorsal root entry zone, and electrically-evoked excitatory postsynaptic currents recorded as described (Imlach, W. L., et al., Molecular Pharmacology, 2015, 88, 460-428).

Gαq = assay: BRET of Gαq activation and trafficking in HEK293 cells; type: cell-based; conditions: SP 0.1-10 nM, 15 min
Description: Since PKC and cAMP signaling via GPCRs depends on heterotrimeric G-proteins, the capacity of SP to activate G-proteins in endosomes of HEK293 cells was examined. BRET was used to determine the proximity of the NK1R and Gαq to Rab5a and Gγ2. SP (0.1-10 nM) decreased NK1R-RLuc8/KRas-Venus BRET, which mirrored the increase in NK1R-RLuc8/Rab5a-Venus BRET (FIG. 3A, B). […] Immunofluorescence and super-resolution microscopy were used to determine whether Gαq co-localized with the NK1R at the plasma membrane or in endosomes of HEK-NK1R cells. After incubation with SP (10 nM) at 4° C., NK1R immunoreactivity (NK1R-IR) and Gαq-IR were colocalized at the plasma membrane. After washing and warming to 37° C. for 15 min, NK1R-IR and Gαq-IR were co-localized with early endosomal antigen 1 (EEA1) (data not shown). Thus, SP activates this G protein complex by its dissociation and recruits Gαq to endosomes.
HEK293 cells were transfected with the following cDNAs: 1 μg NK1R-RLuc8 or 1 μg CLR-RLuc8+1 μg Myc-RAMP1+4 μg KRas-Venus, 4 μg Rab5a-Venus, 4 μg βarr1-YFP, or 4 μg βarr2-YFP; or 1 μg NK1R+0.5 μg Gαq-RLuc8+1 μg Gβ1+4 μg Gγ2-Venus; or 1 μg NK1R+0.5 μg Gαq-RLuc8+1 μg Gβ1+1 μg Gγ2+4 μg Rab5a-Venus. […] BRET ratios were determined using a microplate reader LUMIstar Omega (BMG LabTech) before and after challenge with SP (0.1-10 nM) or vehicle (dH2O).

[2] = Stability in human cerebrospinal fluid; type: in vitro ADME; conditions: Example 2, expected
Description: (§1) To assess stability in cerebrospinal fluid, spantide or Compound 1 (10 μg/ml) was incubated in human cerebrospinal fluid (0-4 h, 37° C.), and then snap frozen. Proteins were precipitated using ACN. To assess stability in the spinal cord, spantide or Compound 1 was injected intrathecally to mice (10 μM, 5 μl, L3/L4). After 3 hours, a spinal cord segment 5 mm on either side the injection site was removed and snap frozen. Tissues were crushed with a glass rod in a mixture of methanol (30 μl) and EDTA/KF (60 μl, 0.1 M EDTA, 4 g/l KF), vortexed and centrifuged to remove lipids. Peptides were extracted from the pellet with 0.5% formic acid in 75% ACN/H2O (100 μl). Samples were analyzed assayed by LC/MS using a Waters Xevo TQ or TQD triple quadrupole mass spectrometer coupled to a Waters UPLC. Peptides were separated by HPLC (Supelco Ascentis Express Peptide ES C18 column, 50×2.1 mm, 2.7 μm) with 0.05% formic acid in H2O and ACN as solvents. Peptides were quantified by comparison to calibration standards (50-50,000 ng/ml).

[3] = Stability in the spinal cord after intrathecal injection to mice; type: in vivo, mouse; conditions: 10 μM, 5 μl, spinal cord after 3 hours
Description: as §1

NK1R = NK1R (Rattus norvegicus, UniProt P14600); assay: SP-stimulated Ca2+ signaling in HEK-NK1R cells, antagonist mode; type: cell-based; parameters: Full length and truncated 6312 rat HA-NK1R have been described; expressed in transfected cells; host or cells: HEK293 (transient)
NK1R, sequence (P14600 whole entry, the tested form may be a part): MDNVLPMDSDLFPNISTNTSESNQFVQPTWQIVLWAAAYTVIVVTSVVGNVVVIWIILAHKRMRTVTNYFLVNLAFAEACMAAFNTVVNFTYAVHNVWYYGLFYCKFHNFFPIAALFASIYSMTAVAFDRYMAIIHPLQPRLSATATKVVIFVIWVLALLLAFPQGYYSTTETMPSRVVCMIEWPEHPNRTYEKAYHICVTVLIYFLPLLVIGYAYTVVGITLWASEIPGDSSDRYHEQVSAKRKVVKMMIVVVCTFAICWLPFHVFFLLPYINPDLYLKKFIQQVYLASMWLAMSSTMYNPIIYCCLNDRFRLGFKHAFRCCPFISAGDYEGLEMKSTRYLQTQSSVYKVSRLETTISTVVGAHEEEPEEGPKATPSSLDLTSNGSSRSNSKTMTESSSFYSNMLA
Description: [Ca^2+]i was measured as described (Jensen, D. D. et al., J Biol Chem, 2014, 289, 20283-20294). HEK293 cells transiently expressing HA-NK1R or HA-CLR/Myc-RAMP1 were loaded with Fura2-AM (2 μM).

| Compound | firing of action potentials [1] | Gαq-RLuc8/Gγ2-Venus BRET (Gαq) | Gαq-RLuc8/Rab5a-Venus BRET (Gαq) | time stable in human CSF [2] | stability after intrathecal injection to mice [3] | IC50 (NK1R) |
| --- | --- | --- | --- | --- | --- | --- |
| SP: substance P, NK1R agonist used as stimulus (RPKPQQFFGLM-NH2; ends and bridges not checked; UniProt P20366 58-68, looked up) | triggered a rapid onset firing of action potentials that was sustained after washout | decreased Gαq-RLuc8/Gγ2-Venus BRET | increased Gαq-RLuc8/Rab5a-Venus BRET |  |  |  |
| CC(C)C[C@H](NC(=O)[C@H](CC(C)C)NC(=O)[C@@H](Cc1c[nH]c2ccccc12)NC(=O)[C@H](Cc1ccccc1)NC(=O)[C@@H](Cc1c[nH]c2ccccc12)NC(=O)[C@H](CCC(N)=O)NC(=O)[C@H](CCC(N)=O)NC(=O)[C@@H]1CCCN1C(=O)[C@H](CCCCN)NC(=O)[C@@H]1CCCN1C(=O)[C@H](N)CCCN=C(N)N)C(N)=O [spantide, ^DArg-Pro-Lys-Pro-Gln-Gln-^DTrp-Phe-^DTrp-Leu-Leu-NH2] (H-[dR]PKPQQ[dW]F[dW]LL-NH2) |  |  |  | > 4 h | extensively metabolized | 5.89 nM |
